# According to PMC7827406, “Structure–Activity Relationship (SAR) Study of Spautin-1 to Entail the Discovery of Novel NEK4 Inhibitors” (International Journal of Molecular Sciences, 2021):
# Like-named read-outs stand apart in the source and are kept apart here.
# Assays:
# Experiment in all cases: biochemical
# Set-up in all cases: Eurofins KinaseProfiler full panel at Km ATP, residual kinase activity (%) relative to DMSO
# Arg(m) = target: T1, Arg(m) (Mus musculus, UniProt Q4JIM5)
# T1 construct: gene Abl2
# T1 sequence (Q4JIM5 whole entry): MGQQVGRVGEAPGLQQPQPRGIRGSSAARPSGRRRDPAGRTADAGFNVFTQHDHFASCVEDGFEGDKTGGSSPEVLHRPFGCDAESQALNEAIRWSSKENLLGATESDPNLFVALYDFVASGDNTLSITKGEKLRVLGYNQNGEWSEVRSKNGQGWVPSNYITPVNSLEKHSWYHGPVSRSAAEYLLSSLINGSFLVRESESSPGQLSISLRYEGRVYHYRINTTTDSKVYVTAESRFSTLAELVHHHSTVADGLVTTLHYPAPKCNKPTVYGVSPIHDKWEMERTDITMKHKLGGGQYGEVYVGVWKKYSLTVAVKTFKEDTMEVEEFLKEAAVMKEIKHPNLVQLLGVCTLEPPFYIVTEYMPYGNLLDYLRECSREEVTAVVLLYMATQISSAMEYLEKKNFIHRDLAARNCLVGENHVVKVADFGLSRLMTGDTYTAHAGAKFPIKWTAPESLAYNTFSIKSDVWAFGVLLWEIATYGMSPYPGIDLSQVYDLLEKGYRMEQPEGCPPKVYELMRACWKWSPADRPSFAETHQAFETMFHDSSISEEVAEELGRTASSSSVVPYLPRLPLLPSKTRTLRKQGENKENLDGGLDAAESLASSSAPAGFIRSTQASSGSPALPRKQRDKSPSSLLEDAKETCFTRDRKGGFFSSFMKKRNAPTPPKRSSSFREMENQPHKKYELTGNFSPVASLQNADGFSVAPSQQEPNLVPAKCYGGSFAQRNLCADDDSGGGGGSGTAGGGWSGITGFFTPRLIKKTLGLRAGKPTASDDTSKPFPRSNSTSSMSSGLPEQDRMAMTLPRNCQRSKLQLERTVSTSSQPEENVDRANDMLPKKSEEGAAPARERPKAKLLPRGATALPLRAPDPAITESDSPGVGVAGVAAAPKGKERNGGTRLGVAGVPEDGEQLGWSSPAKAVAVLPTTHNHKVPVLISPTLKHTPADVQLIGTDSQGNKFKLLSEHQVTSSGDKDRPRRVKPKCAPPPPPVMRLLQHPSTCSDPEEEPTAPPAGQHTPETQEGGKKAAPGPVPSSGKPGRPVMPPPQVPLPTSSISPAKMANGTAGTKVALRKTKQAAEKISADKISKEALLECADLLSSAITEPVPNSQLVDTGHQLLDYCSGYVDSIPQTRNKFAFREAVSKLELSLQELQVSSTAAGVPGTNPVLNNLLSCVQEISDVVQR
# How it was run: (§1)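 Compounds screened at 10 µM in radiometric kinase activity assays at Km ATP, reported as remaining kinase activity (%). A KINOMEscan competition-binding screen at 10 µM measured DNA-tagged kinase retained on immobilized active-site ligand by qPCR.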
# TTBK2(h) = TTBK2(h) (Homo sapiens, UniProt Q6IQ55)
# How it was run: as §1
# SGK3(h) = target: T2, SGK3(h) (Homo sapiens, UniProt Q96BR1)
# T2 sequence (Q96BR1 1-496): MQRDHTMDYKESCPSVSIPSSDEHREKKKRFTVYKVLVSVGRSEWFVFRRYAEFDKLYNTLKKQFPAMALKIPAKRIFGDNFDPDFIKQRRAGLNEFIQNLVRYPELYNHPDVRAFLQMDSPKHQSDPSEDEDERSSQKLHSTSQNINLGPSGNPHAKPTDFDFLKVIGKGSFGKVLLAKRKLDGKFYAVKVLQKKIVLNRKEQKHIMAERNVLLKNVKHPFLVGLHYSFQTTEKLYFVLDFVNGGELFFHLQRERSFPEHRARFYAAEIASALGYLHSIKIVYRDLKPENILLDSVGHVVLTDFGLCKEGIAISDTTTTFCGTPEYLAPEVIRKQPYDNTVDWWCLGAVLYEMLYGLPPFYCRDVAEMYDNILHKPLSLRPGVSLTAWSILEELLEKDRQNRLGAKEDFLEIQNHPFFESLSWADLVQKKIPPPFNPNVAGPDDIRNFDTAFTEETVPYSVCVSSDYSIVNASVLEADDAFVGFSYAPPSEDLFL
# How it was run: as §1
# MLK1(h) = target: T3, MLK1(h) (Homo sapiens, UniProt P80192)
# T3 construct: gene MAP3K9
# T3 sequence (P80192 whole entry): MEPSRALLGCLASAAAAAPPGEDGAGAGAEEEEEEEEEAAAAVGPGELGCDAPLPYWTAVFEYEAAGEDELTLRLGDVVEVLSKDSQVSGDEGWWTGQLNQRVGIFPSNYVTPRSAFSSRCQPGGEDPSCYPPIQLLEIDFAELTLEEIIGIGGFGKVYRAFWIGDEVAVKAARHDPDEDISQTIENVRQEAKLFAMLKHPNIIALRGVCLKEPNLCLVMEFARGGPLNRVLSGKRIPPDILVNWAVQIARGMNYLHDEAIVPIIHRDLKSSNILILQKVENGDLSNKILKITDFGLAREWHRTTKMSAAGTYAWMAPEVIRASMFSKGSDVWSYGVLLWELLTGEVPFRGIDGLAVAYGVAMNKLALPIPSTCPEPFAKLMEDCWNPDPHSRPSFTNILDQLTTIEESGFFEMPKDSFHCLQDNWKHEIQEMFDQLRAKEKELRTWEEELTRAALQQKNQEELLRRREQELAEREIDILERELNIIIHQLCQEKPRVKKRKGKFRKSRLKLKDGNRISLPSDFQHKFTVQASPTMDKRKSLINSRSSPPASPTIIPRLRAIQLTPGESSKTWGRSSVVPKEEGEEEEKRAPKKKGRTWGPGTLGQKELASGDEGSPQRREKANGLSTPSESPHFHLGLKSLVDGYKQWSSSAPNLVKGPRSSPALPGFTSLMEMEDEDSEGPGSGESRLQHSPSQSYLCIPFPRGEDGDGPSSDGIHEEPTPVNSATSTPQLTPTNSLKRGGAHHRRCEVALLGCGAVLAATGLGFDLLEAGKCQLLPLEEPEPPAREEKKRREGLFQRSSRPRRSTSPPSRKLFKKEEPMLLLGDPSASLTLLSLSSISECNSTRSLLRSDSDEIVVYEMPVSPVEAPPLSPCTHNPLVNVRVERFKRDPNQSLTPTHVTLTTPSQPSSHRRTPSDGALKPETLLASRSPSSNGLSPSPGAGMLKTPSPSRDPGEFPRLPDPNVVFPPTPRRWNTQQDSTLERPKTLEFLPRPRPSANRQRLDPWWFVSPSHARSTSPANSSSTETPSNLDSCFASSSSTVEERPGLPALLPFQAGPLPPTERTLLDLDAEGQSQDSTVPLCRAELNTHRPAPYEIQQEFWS
# How it was run: as §1
# cKit(V654A)(h) = target: T4, cKit(V654A)(h) (Homo sapiens, UniProt P10721, V654A)
# T4 construct: gene KIT
# T4 sequence (P10721 whole entry V654A): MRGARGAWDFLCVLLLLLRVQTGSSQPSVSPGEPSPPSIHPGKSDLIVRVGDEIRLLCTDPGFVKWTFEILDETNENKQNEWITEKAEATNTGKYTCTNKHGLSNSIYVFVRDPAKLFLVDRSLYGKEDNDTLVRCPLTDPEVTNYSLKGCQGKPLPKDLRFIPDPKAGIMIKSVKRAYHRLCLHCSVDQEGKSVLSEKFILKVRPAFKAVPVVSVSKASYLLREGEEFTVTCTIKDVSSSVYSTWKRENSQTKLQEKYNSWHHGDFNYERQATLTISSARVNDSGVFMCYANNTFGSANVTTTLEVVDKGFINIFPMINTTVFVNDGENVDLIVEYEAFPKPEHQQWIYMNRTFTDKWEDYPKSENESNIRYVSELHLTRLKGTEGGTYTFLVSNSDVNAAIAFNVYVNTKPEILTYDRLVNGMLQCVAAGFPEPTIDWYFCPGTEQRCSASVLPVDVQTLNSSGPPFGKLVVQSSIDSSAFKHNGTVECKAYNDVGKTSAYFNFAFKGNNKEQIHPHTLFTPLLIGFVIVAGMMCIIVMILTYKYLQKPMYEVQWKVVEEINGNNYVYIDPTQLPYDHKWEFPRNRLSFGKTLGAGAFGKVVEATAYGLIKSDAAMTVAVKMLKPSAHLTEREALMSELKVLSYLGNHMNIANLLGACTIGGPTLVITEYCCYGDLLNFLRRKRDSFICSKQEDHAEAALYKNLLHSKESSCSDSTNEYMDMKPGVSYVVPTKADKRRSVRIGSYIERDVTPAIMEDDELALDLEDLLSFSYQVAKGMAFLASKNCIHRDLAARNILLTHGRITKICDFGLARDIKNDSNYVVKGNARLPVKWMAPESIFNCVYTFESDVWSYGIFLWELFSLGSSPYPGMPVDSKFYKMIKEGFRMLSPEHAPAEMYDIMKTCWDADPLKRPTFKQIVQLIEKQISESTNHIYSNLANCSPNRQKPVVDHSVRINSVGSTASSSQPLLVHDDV
# How it was run: as §1
# MSK1(h) = target: T5, MSK1(h) (Homo sapiens, UniProt O75582)
# T5 construct: gene RPS6KA5
# T5 sequence (O75582 whole entry): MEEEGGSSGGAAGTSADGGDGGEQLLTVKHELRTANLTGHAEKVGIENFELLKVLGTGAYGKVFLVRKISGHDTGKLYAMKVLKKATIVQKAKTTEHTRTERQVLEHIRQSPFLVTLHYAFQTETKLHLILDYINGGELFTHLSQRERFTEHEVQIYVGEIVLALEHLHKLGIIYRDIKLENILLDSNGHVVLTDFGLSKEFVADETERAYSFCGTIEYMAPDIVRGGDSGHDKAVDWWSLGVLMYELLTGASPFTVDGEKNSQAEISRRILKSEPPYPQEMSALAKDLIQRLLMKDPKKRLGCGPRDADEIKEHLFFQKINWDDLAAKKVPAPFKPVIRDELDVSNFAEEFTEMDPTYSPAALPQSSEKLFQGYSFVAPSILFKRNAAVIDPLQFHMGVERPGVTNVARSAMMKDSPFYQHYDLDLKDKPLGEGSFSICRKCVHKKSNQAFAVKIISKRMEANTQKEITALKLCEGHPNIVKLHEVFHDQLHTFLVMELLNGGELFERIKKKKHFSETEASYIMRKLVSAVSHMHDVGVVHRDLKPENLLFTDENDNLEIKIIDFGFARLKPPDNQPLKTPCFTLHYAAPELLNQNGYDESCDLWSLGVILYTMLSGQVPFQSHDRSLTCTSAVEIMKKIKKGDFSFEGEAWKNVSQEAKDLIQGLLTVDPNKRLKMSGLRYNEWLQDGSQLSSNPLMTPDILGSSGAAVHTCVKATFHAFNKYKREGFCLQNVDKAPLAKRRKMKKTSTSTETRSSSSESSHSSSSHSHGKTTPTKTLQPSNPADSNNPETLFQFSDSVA
# How it was run: as §1
# DCAMKL3(h) = target: T6, DCAMKL3(h) (Homo sapiens, UniProt Q9C098)
# T6 construct: gene DCLK3
# T6 sequence (Q9C098 1-648): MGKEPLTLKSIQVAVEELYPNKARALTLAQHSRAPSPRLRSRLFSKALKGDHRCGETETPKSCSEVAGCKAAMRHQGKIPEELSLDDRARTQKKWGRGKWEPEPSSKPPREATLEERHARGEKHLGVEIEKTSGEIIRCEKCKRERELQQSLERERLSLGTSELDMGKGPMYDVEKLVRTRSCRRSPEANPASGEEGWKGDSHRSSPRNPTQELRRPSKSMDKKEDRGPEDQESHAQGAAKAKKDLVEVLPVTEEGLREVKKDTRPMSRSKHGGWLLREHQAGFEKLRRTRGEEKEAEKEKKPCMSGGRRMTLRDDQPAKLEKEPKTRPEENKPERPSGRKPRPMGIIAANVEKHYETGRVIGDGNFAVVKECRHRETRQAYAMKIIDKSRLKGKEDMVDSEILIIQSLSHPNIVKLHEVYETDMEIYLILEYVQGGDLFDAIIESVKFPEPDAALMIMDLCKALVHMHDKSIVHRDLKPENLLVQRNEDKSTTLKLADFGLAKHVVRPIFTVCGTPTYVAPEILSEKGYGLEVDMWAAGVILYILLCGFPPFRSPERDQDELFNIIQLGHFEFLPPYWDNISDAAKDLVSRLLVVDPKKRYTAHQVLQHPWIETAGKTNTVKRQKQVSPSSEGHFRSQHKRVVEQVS
# How it was run: as §1
# [1] = read-out: Residual activity (%) Spautin-1 5aa
# [2] = read-out: Residual activity (%) 5as
# [3] = read-out: Residual activity (%) 5at
# [4] = read-out: Residual activity (%) 5ay
smiles,measurement,setting,value
"Fc1ccc(CNc2ncnc3ccc(F)cc23)cc1 [5aa, 6-Fluoro-N-(4-fluorobenzyl)-4-Quinazolinamine]",remaining activity at 10 µM,Arg(m); [1],91%
same,remaining activity at 10 µM,TTBK2(h); [1],117%
same,remaining activity at 10 µM,SGK3(h); [1],95%
same,remaining activity at 10 µM,MLK1(h); [1],89%
same,remaining activity at 10 µM,cKit(V654A)(h); [1],112%
same,remaining activity at 10 µM,MSK1(h); [1],90%
same,remaining activity at 10 µM,DCAMKL3(h); [1],102%
"Fc1ccc(CCNc2ncnc3ccc(F)cc23)cc1 [5as, 6-Fluoro-N-[2-(4-Fluorophenyl)Ethyl]-4-Quinazolinamine]",remaining activity at 10 µM,Arg(m); [2],105%
same,remaining activity at 10 µM,TTBK2(h); [2],107%
same,remaining activity at 10 µM,SGK3(h); [2],88%
same,remaining activity at 10 µM,MLK1(h); [2],77%
same,remaining activity at 10 µM,cKit(V654A)(h); [2],85%
same,remaining activity at 10 µM,MSK1(h); [2],70%
same,remaining activity at 10 µM,DCAMKL3(h); [2],108%
"Fc1ccc2ncnc(NCCc3ccc(Cl)cc3)c2c1 [5at, N-[2-(4-Chlorophenyl)Ethyl]-6-Fluoro-4-Quinazolinamine]",remaining activity at 10 µM,Arg(m); [3],98%
same,remaining activity at 10 µM,TTBK2(h); [3],111%
same,remaining activity at 10 µM,SGK3(h); [3],93%
same,remaining activity at 10 µM,MLK1(h); [3],76%
same,remaining activity at 10 µM,cKit(V654A)(h); [3],85%
same,remaining activity at 10 µM,MSK1(h); [3],79%
same,remaining activity at 10 µM,DCAMKL3(h); [3],107%
"COc1ccc2ncnc(Nc3cccc(F)c3)c2c1 [5ay, N-(3-Fluorophenyl)-6-Methoxy-4-Quinazolinamine]",remaining activity at 10 µM,Arg(m); [4],83%
same,remaining activity at 10 µM,TTBK2(h); [4],114%
same,remaining activity at 10 µM,SGK3(h); [4],91%
same,remaining activity at 10 µM,MLK1(h); [4],68%
same,remaining activity at 10 µM,cKit(V654A)(h); [4],92%
same,remaining activity at 10 µM,MSK1(h); [4],74%
same,remaining activity at 10 µM,DCAMKL3(h); [4],108%
